# Assay results taken from US20260199426A1, “CYCLIC LIPOPEPTIDE ANTIBIOTIC COMPOUNDS FOR USE IN THE TREATMENT OF PROTEIN AGGREGATION DISEASE” (DEUTSCHES ZENTRUM FÜR NEURODEGENERATIVE ERKRANKUNGEN E. V., priority 2022, published 2026).
# *1 amine or outer side, *2 acyl side, *3 side chain or, on linkers, in order; H or OH if unused. Where a SMILES comes first, the peptide text is derived from it. Bridges are numbered along the chain shown (N, C = ends). [ ]: non-standard residue; d: D form. The star is where a group is joined. ξ: configuration not given here. X2 = O=C(C(N[*:1])c1ccc(OC2OC(CO)C(O)C(O)C2OC2OC(CO)C(O)C(O)C2O)cc1)[*:2]; Octa(2Z,4E)dienoyl(7-Me) = CC(C)C/C=C/C=C\C(=O)*; ξPhg(3-Cl-4-OH) = NC(C(=O)O)c1ccc(O)c(Cl)c1; X1 = NC(=O)C(O[*:3])C(N[*:1])C(=O)[*:2]; Hpg = N[CH](C(=O)O)c1ccc(O)cc1; Orn = NCCC[CH](N)C(=O)O
# Test system: PS19 mouse model of tauopathy (human MAPT P301S)
# Assay: Behavior, neuropathology and survival of PS19 mice
# Type: in vivo
# Settings: 50, 100, and 150 mg/kg in feed, approximately 8 months
smiles,measurement,value
"CC(C)C/C=C/C=C\C(=O)NC(CC(N)=O)C(=O)NC1C(=O)NC(c2ccc(O)cc2)C(=O)NC(CCCN)C(=O)NC(C(C)O)C(=O)NC(c2ccc(O)cc2)C(=O)NC(c2ccc(O)cc2)C(=O)NC(C(C)O)C(=O)NC(Cc2ccccc2)C(=O)NC(CCCN)C(=O)NC(c2ccc(OC3OC(CO)C(O)C(O)C3OC3OC(CO)C(O)C(O)C3O)cc2)C(=O)NC(C(C)O)C(=O)NC(c2ccc(O)cc2)C(=O)NCC(=O)NC(CC(C)C)C(=O)NC(C)C(=O)NC(c2ccc(O)c(Cl)c2)C(=O)OC1C(N)=O (centres unmarked) [Ramoplanin A2] ({Octa(2Z,4E)dienoyl(7-Me)}-N[X1][Hpg][Orn]T[Hpg][Hpg]TF[Orn][X2]T[Hpg]GLA[ξPhg(3-Cl-4-OH)]; ester 2-C; configuration not given here)","cognition, neuropathology, and survival of PS19 mice",positive effect
same,tau aggregation in PS19 mice,inhibits tau aggregation
